# Test results: US4855304A, “Dinucleoside pyrophosphates and pyrophosphate homologs as plant antivirals” (Repligen Corporation, priority 1985, dated 1989)
# Like-named read-outs stand apart in the source and are kept apart here.
# Assays:
# [1] = tested on: TMV (tobacco mosaic virus) replication in TMV-infected tobacco leaf discs; assay: Antiviral activity in TMV-infected leaf discs (TMV content by ELISA); format: cell-based, tobacco mosaic virus; leaf discs of N. tabacum var. samsun; set-up: key to TMV content: N.I.: no inhibition; conditions: for inhibition at 0.1 µM / inhibition at 0.2 µM: Tobacco mosaic virus, read-out: percent inhibition as related to control
# Experimental: Assays for antiviral activity in TMV-infected leaf discs were done using leaves of N. tabacum var. samsun in which TMV is systemically spread. Leaves were mechanically inoculated with purified TMV (5 μg/ml in 0.01M sodium phosphate buffer, pH 7.6, containing 0.1 g/ml of carborundum as an abrasive). Immediately after infection, leaf discs (6.5 mm diameter) were punched out of the inoculated leaves and placed in a beaker containing 0.01M sodium phosphate, pH 7.6.
# selected at random from this common pool and placed onto separate petri dishes, each containing 18 ml of 10 mM 4-(2-hydroxyethyl)-1-piperazine ethanesulfonic acid (HEPES)-KOH, pH 7.05, 188 mg/L Na2 HPO4 --7H2 O. […] At the end of the 1 hr incubation, the buffer containing the antiviral dinucleotide was replaced by a buffer lacking the antiviral dinucleotide for another hr. The discs were then washed with 0.01M sodium phosphate, pH 7.6, and were allowed to incubate for an additional 72 hr in phosphate buffer (Devash, Y., Biggs, S. and Sela, I. [1982] Science 216: 1415-1416; Devash, Y. et al. [1984] J. Biol. Chem. 259: 3482-3486). The discs were homogenized in 0.01M sodiuM phosphate buffer, pH 7.6, and the TMV content was determined by enzyme-linked immunosorbent assay (ELISA) as described below.
# (§1) The TMV content of the homogenates was determined by ELISA essentially by the method of Clark and Adams ([1977] J. Gen. Virol. 34: 475-483) but with the following order of layers on the microtiter plates.
# (§2) (a) the γ-globulin fraction of a serum obtained from a chicken immunized against TMV was absorbed directly to the plate.
# (§3) (b) The next layer was the tested sample (at various dilutions) or a series of purified TMV suspensions at known concentrations (calibration curve).
# (§4) (c) The third layer was the γ-globulin from the serum of a TMV-immunized rabbit.
# (§5) (d) The final layer was goat antibody to rabbit immunoglobulin G conjugated with alkaline phosphatase (Sigma). The release of phosphate from p-nitrophenyl phosphate due to the antibody-conjugated alkaline phosphatase was monitored spectrophotometrically with a Microplate reader (Dynatech Diagnostics, Inc. South Windham, ME) and was proportional to TMV concentration in a log linear manner for about two logs (<2 ng to>200 ng). (Devash, Y., Biggs, S. and Sela, I. [1982] Science 216: 1415-1416)
# The γ-globulin fraction of serum obtained from chickens and rabbits immunized against TMV were generous gifts from Professor Ilan Sela, The Hebrew University of Jerusalem, Agriculture Faculty, Rehobot, Israel.
# [2] = tested on: TMV (tobacco mosaic virus) replication in intact N. glutinosa plants; assay: Antiviral activity in N. glutinosa intact plants, infectivity test (local lesions); format: in vivo, tobacco mosaic virus; Nicotiana glutinosa
# Experimental: (§6) Nicotiana glutinosa and N. tabacum var. samsum plants were grown in potting medium in greenhouse conditions (25±3° C., and constant illumination). The plants were fertilized with a commercial fertilizer every two weeks. Plants were used at 5-8 leaf stage (Devash, Y., Biggs, S. and Sela, I. [1982] Science 216: 1415-1416; Devash, Y. et al. [1984] Jour. Biol. Chem. 259: 3482-3486).
# The ability of the antiviral dinucleotides to inhibit TMV replication in intact N. glutinosa plants (containing N-gene for TMV localization) was determined by infectivity tests. Solutions containing 5 μg/ml TMV, 0.1 μg/ml carborundum, and antiviral dinucleotide were applied to 5 half-leaves of N. glutinosa. The opposite half-leaves served as controls and were inoculated with infecting solution containing TMV and carborundum but no dinucleotides. The infection was allowed to proceed 48 hr. Inhibition of TMV replication was calculated as the percent of local lesions produced in antiviral compound treated half-leaves, as compared to control half-leaves.
# [3] = tested on: TMV (tobacco mosaic virus) in N. tabacum plants; assay: Root application to N. tabacum intact plants (TMV content by ELISA); format: in vivo, tobacco mosaic virus; Nicotiana tabacum; conditions: 1 μM, roots, 2 hr
# Experimental: as §6
# Nicotiana tabacum plants were used as a source of plant tissue in which TMV is spread systemically.
# (a) Root application: N. tabacum plants were removed from their pots and transferred into 50 ml tubes containing 10 ml of 10 mM HEPES-KOH, pH 7.6, and the antiviral dinucleotides. Two hr later, plants were transferred into 50 ml tubes lacking the antiviral compound and were inoculated by TMV as described above. Twenty-four hr later leaves were homogenized in 0.01M sodium phosphate buffer, pH 7.6, (1 g leaves/3 ml buffer) and TMV content was determined by ELISA.
# as §1, §2, §3, §4, §5
# In order to establish the relationship of the induced resistance to the N-gene for viral localization and to the transmission ability of the compounds, a comparison between leaf application and root application of antiviral dinucleotides to N. tabacum plants was made. N. tabacum plants were removed into vials containing 10 ml of 10 mM HEPES-KOH, pH 7.6, and 1 μM of antiviral dinucleotide. The plant roots were allowed to remain in the solutions for 2 hr and then were transferred to vials containing the buffer without the antiviral compounds.
# The plants then were infected with TMV as above. (See section 4. Antiviral activity on N. tabacum intact plants, paragraph [a].) Another group of N. tabacum plants was tested as described in the above-noted section, paragraph (b).
compound,measurement,setting,value
"Nc1ncnc2c1ncn2[C@@H]1O[C@H](COP(=O)(O)OP(=O)(O)OP(=O)(O)OC[C@H]2O[C@@H](n3cnc4c(N)ncnc43)[C@H](O)[C@@H]2O)[C@@H](O)[C@H]1O [A5'ppp5'A, diadenosine 5',5""'-p^1,p3 -triphosphate]",TMV content,"[1]; 100 nM, treatment with [Ca^+2] coprecipitation, control 75",65 ngTMV/ml
same,TMV content,"[1]; 100 nM, treatment without [Ca^+2] coprecipitation, control 56",N.I.
same,TMV content,"[1]; 200 nM, treatment with [Ca^+2] coprecipitation, control 75",38 ngTMV/ml
same,TMV content,"[1]; 200 nM, treatment without [Ca^+2] coprecipitation, control 56",N.I.
same,inhibition at 0.1 µM,"[1]; 100 nM, treatment with [Ca^+2] coprecipitation",13%
same,inhibition at 0.1 µM,"[1]; 100 nM, treatment without [Ca^+2] coprecipitation",0%
same,inhibition at 0.2 µM,"[1]; 200 nM, treatment with [Ca^+2] coprecipitation",50%
same,inhibition at 0.2 µM,"[1]; 200 nM, treatment without [Ca^+2] coprecipitation",0%
same,percent protection as compared to control TMV infected leaves,"[2]; 10 nM (10^-8 M), non-treated half-leaf",80.3%
same,percent protection as compared to control TMV infected leaves,"[2]; 10 nM (10^-8 M), treated half-leaf",98.6%
same,percent protection as compared to control TMV infected leaves,"[2]; 100 nM (10^-7 M), non-treated half-leaf",100%
same,percent protection as compared to control TMV infected leaves,"[2]; 100 nM (10^-7 M), treated half-leaf",100%
same,induced resistance to TMV infection in the non-treated half-leaf,"[2]; 1 μM (10^-6 M), in words",resulted in an induced resistance to TMV infection even in the non-treated half-leaf
same,percent protection as compared to control TMV infected leaves,"[2]; 1000 nM (10^-6 M), non-treated half-leaf",100%
same,percent protection as compared to control TMV infected leaves,"[2]; 1000 nM (10^-6 M), treated half-leaf",100%
same,% Protection,[3],51%
same,ng TMV/g of leaves,[3]; control 200,98 ng TMV/g of leaves
